The source made the active and inactive calls. The rule behind the calls is not given here.
Legend:
[1] = biological target: Solute carrier family 22 member 1 (Homo sapiens, UniProt O15245); test: Substrate activity at human OCT1 transfected in HEK293 cells assessed as increase in intracellular drug content at 100 uM measured after 5 mins; assay type: ADME, cell-based; settings: hek293, 5 min
Escherichia coli [2] = test: Antibiofilm activity against Escherichia coli ATCC25922 assessed as disruption of preformed biofilms at 0.5 ug/ml incubated for 24 hrs with preformed biofilms by crystal violet staining based analysis; assay type: functional; settings: dose 0.5 µg/ml
Staphylococcus aureus [3] = test: Antibacterial activity against methicillin-resistant Staphylococcus aureus ATCC33591 assessed as post-antibiotic effect at 0.25 ug/ml incubated for 1 hr followed by washing and incubation in MHB medium for 10 hrs and later cultured on agar plate for overnight; assay type: functional; settings: dose 0.25 µg/ml
[4] = biological target: T1, Solute carrier family 22 member 2 (Homo sapiens, UniProt O15244); test: Substrate activity at human OCT2 transfected in HEK293 cells assessed as increase in intracellular drug content at 100 uM measured after 5 mins; assay type: ADME, cell-based; settings: hek293, 5 min
T1 sequence (O15244 whole entry): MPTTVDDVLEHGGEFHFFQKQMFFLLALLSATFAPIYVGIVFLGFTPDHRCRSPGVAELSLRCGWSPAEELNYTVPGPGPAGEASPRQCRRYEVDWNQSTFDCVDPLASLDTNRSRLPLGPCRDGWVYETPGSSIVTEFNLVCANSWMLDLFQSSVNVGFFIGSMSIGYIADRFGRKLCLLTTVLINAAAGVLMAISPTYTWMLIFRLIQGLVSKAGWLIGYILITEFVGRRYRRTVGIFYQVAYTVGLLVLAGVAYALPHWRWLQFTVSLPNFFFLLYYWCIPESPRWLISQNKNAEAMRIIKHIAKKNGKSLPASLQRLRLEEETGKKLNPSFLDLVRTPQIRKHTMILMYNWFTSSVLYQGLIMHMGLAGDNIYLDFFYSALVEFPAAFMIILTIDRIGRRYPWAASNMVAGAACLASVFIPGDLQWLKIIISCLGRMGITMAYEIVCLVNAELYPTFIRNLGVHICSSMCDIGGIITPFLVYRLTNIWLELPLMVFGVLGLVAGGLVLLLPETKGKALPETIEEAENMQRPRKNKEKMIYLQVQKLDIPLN

[5] = Cytotoxicity against human HEK293 cells assessed as reduction in cell viability incubated for 24 hrs by CCK8 assay; assay type: toxicity, cell-based
Cell membrane [6] = test: Disruption of cell membrane in Escherichia coli ATCC25922 assessed as induction of cell death by measuring increase in propidium iodide fluorescence intensity at 0.5 ug/ml incubated for 2 hrs by fluorescence field microscopy; assay type: subcellular; settings: dose 0.5 µg/ml
Escherichia coli [7] = test: Antibacterial activity against Escherichia coli ATCC25922 infected in pyelonephritis C57BL/6 mouse model assessed as recovery of neutrophils count in blood at 3 to 10 mg/kg, iv qd for 3 days administered at 2 days post-infection; assay type: functional, organism-based; settings: dose 3-10 mg/kg, time 3.0 day
[8] = Observed apparent oral clearance in Sprague-Dawley rat at 10 mg/kg, po; assay type: ADME, organism-based; settings: in vivo
Cell membrane [9] = test: Disruption of cell membrane in methicillin-resistant Staphylococcus aureus ATCC33591 assessed as increase in extracellular ATP content at 0.125 to 0.25 ug/ml incubated for 30 mins by luminescence based analysis; settings: dose 0.125-0.25 µg/ml
[10] = Cytotoxicity against human HepG2 cells assessed as reduction in cell viability incubated for 24 hrs by CCK8 assay; assay type: toxicity, cell-based
Escherichia coli [11] = test: Antibacterial activity against Escherichia coli CMCC 44103 assessed as inhibition of bacterial growth incubated for 24 hrs by broth microdilution method; assay type: functional
[12] = Oral bioavailability in Sprague-Dawley rat at 10 mg/kg; assay type: ADME, organism-based; settings: in vivo
[13] = biological target: T1, Solute carrier family 22 member 2; test: Inhibition of human OCT2 transfected in HEK293 cells assessed as decrease in intracellular ASP accumulation […] incubated for 10 mins followed by incubation with ASP for 5 mins by fluorescence based analysis; assay type: cell-based; settings: hek293, 0.25 h, time 15 min
[14] = biological target: Voltage-gated inwardly rectifying potassium channel KCNH2 (Homo sapiens, UniProt Q12809); test: Inhibition of hERG expressed in HEK293 cells assessed as inhibition of tail current measured at holding potential of -80 mV by automated patch clamp analysis; assay type: toxicity, cell-based
Chain of Voltage-gated inwardly rectifying potassium channel KCNH2 (Q12809 whole entry): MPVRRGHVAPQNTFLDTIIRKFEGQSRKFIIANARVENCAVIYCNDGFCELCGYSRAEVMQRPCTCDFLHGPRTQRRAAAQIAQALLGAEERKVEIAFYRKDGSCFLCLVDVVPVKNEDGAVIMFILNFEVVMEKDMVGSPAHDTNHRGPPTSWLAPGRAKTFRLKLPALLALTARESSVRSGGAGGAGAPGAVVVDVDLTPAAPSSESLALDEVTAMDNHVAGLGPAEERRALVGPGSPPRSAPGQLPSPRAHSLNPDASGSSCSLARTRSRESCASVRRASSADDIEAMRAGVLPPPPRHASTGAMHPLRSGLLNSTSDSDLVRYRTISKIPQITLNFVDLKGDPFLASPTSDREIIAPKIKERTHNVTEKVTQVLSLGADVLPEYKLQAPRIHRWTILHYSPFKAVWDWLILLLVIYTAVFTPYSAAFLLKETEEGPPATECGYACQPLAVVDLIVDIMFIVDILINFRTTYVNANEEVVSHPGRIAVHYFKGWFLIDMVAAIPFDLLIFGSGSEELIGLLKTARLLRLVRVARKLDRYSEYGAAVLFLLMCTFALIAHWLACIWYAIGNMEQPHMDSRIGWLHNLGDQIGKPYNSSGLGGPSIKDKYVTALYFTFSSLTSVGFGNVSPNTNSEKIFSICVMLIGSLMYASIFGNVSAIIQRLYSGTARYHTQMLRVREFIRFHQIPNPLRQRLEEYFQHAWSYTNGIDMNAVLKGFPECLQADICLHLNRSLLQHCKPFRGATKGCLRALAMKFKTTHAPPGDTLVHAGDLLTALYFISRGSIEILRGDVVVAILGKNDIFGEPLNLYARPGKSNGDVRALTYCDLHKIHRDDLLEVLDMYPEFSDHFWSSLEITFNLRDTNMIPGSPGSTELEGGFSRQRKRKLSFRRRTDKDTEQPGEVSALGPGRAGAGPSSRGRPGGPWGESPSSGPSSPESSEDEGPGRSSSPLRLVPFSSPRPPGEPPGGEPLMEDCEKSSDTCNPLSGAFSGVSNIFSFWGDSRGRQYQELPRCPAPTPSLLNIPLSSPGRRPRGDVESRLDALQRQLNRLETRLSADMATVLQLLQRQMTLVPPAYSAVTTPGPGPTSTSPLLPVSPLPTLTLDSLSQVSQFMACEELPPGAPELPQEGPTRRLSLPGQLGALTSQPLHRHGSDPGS

[15] = Observed AUC (0 to infinity) in Sprague-Dawley rat at 5 mg/kg, iv; assay type: ADME, organism-based; settings: in vivo
Mycoplasma genitalium = test: Anti-mycoplasma activity against Mycoplasma genitalium G37 ATCC33530 assessed as inhibition of bacterial growth incubated for 7 to 14 days by broth microdilution method; assay type: functional; settings: Mycoplasmoides genitalium, time 7-14 day
[16] = Observed MRT (0 to infinity) in Sprague-Dawley rat at 10 mg/kg, po; assay type: ADME, organism-based; settings: in vivo
[17] = Cytotoxicity against human A549 cells assessed as reduction in cell viability incubated for 24 hrs by CCK8 assay; assay type: toxicity, cell-based
Staphylococcus aureus [18] = test: Antibacterial activity against methicillin-resistant Staphylococcus aureus ATCC33591 infected in systemic intraperitoneal infection Kunming mouse model assessed as decrease in bacterial colonies in kidneys administered intraperitoneally at 1 hr post-infection and measured after 7 days; assay type: functional, organism-based; settings: dose 5-20 mg/kg, route ip, time 7.0 day
Chlamydia pneumoniae = test: Anti-mycoplasma activity against Chlamydophila pneumoniae CWL-029 VR1310 assessed as inhibition of bacterial growth incubated for 3 to 5 days by broth microdilution method; assay type: functional; settings: time 3-5 day
Staphylococcus aureus [19] = test: Antibiofilm activity against methicillin-resistant Staphylococcus aureus ATCC33591 assessed as eradication of preformed biofilms incubated for 24 hrs with preformed biofilms by crystal violet staining based analysis; assay type: functional, organism-based; settings: dose 0.125-0.5 µg/ml
[20] = Half-life in Sprague-Dawley rat at 5 mg/kg, iv; assay type: ADME, organism-based; settings: in vivo
Escherichia coli [21] = test: Antibacterial activity against Escherichia coli ATCC25922 infected in pyelonephritis C57BL/6 mouse model assessed as restoration of normal renal cortex and pelvis structures at >=5 mg/kg, iv qd for 3 days administered at 2 days post-infection by Hematoxylin-Eosin staining based analysis; assay type: functional, organism-based; settings: time 3.0 day
Staphylococcus aureus [22] = test: Antibiofilm activity against methicillin-resistant Staphylococcus aureus ATCC33591 assessed as disruption of preformed biofilms at 0.5 ug/ml incubated for 24 hrs with preformed biofilms by crystal violet staining based analysis; assay type: functional; settings: dose 0.5 µg/ml
Acinetobacter baumannii = test: Antibacterial activity against Acinetobacter baumannii ATCC 19606 assessed as inhibition of bacterial growth incubated for 24 hrs by broth microdilution method; assay type: functional
Escherichia coli [23] = test: Antibacterial activity against Escherichia coli ATCC25922 infected in pyelonephritis C57BL/6 mouse model assessed as decrease in inflammatory cell infiltration in kidney at 3 to 10 mg/kg, iv qd for 3 days administered at 2 days post-infection by Hematoxylin-Eosin staining based analysis; assay type: functional, organism-based; settings: dose 3-10 mg/kg, time 3.0 day
[24] = AUC (0 to 24 hrs) in Sprague-Dawley rat at 10 mg/kg, po; assay type: ADME, organism-based; settings: in vivo
[25] = Observed MRT (0 to infinity) in Sprague-Dawley rat at 5 mg/kg, iv; assay type: ADME, organism-based; settings: in vivo
Escherichia coli [26] = test: Antibacterial activity against Escherichia coli ATCC25922 infected in pyelonephritis C57BL/6 mouse model assessed as recovery of white blood cells count in blood at 3 to 10 mg/kg, iv qd for 3 days administered at 2 days post-infection; assay type: functional, organism-based; settings: dose 3-10 mg/kg, time 3.0 day

Chain of Solute carrier family 22 member 1 (O15245 whole entry): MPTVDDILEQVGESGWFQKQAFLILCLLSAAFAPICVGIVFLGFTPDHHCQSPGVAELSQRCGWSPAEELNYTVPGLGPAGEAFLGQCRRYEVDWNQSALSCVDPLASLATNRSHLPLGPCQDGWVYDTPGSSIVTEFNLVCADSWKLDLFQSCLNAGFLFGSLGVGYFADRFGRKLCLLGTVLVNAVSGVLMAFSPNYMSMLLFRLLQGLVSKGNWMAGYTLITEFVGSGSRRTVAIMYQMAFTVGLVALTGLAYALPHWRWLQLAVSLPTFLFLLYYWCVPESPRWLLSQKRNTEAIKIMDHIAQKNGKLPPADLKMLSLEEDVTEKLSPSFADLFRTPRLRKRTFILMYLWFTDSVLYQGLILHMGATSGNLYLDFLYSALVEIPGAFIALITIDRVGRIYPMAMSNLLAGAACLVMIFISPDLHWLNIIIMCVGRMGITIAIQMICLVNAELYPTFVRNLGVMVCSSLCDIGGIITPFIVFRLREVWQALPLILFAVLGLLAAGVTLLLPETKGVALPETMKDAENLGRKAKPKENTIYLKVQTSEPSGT

C=C[C@]1(C)C[C@@H](OC(=O)CSc2nc3cc[n+](Cc4ccc(C)cc4)cc3[nH]2)[C@]2(C)[C@H](C)CC[C@]3(CCC(=O)[C@H]32)[C@@H](C)[C@@H]1O.[Br-]
Activity [1]: Active | Activity (Escherichia coli [2]): 88.55% | PAE (Staphylococcus aureus [3]): 1.53 h | Activity [4]: Active | CC50 at 24 h [5]: 96.4 µM | Activity (Cell membrane [6]): Active | Activity (Escherichia coli [7]): Active | CL/F [8]: 10.5 mL/min/kg | Activity (Cell membrane [9]): Active | CC50 at 24 h [10]: > 100 µM | MIC (Escherichia coli [11]): < 1 µg/mL | bioavailability [12]: 47.9% | inhibition (INH) [13]: Not_active | IC50 [14]: 71.5 µM | AUC(0-inf) [15]: 16500 ng·h/mL | MIC (Mycoplasma genitalium): < 0.04 µg/mL | MRT inf [16]: 2.46 h | CC50 at 24 h [17]: > 100 µM | Activity (Staphylococcus aureus [18]): Active; Superior Efficacy Compared To Valnemulin Observed | MIC (Chlamydia pneumoniae): < 0.04 µg/mL | Activity (Staphylococcus aureus [19]): Dose-dependent-effect | half-life [20]: 70.2 min | Activity (Escherichia coli [21]): Active | Activity (Staphylococcus aureus [22]): 84.31% | MIC (Acinetobacter baumannii): < 1 µg/mL | Activity (Escherichia coli [23]): Active | AUC(0-t) [24]: 14600 ng·h/mL | MRT inf [25]: 1.14 h | Activity (Escherichia coli [26]): Active
